Patent US10151529B2, “Dynamic suspension drying (DSD) to control Ostwald Ripening” (HOVIONE INTERNATIONAL LTD, priority 2013, dated 2018)

Columns and labels:
Format in all cases: physicochemical
[1] = XRPD analysis of crystalline form after DSD
From the text: 8. The crystalline form was kept unchanged, as confirmed by XRPD analysis. 9. Through this delicate balance, stabilization of the suspension is accomplished (FIG. 3) in a simpler, effective, reproducible and easily scalable way; additionally, no impact on the polymorphic form was noticeable by XPRD analysis.

[2] = Laboratory study of Ostwald Ripening: particle size growth of size-reduced suspensions stored at different temperatures, LSW model fit
Protocol: 4. In order to confirm that the observed PS instability was being caused by OR phenomenon, a laboratorial study was designed. In this study, two suspensions of MFM were size-reduced via HPH to a different PS (D50=2.0 μm and 3.0 μm) and, afterwards, stored at different temperatures (5° C. and 45° C.). In all cases, PS growth was monitored by considering […] sampling time points (24, 72, 144 and 168 h).
Before fitting the obtained data, a literature review was conducted; several models can be found for OR modeling, with most of them being modifications of the Lifshitz, Slyozov and Wagner (LSW) theory (Eq. 1), which is a kinetic model that translates an isothermal variation of the more general problem (M. Mrotzek, 2008): […]
Based on the above equation, two important observations (M. Mrotzek, 2008) (V. Sadtler, 2002) are expected when in the presence of OR: i) a cubic or quadratic growth (depending on the limiting step) and ii) a more pronounced increase of K for higher temperatures. As shown in FIG. 2 (left plot), both previous observations are valid for the current case-study, thus supporting the presence of OR; in this plot, r^3-r0^3 was represented as a function of time and the K value determined by performing a linear regression where Eq. 1 was assumed as the theoretical model; as shown in […] (right plot) a good correlation coefficient was obtained (R^2=0.94).

[3] = Particle size (in-process control) after high pressure homogenization and during spray drying, with and without DSD
Protocol: 1. Mometasone furoate monohydrate (2330 g) was suspended in water (23000 g) and stirred for 5 hours in order to obtain a uniform suspension; afterwards, it was fed to a lab scale HPH apparatus operating at pressures ranging from 757.5 to 1363.5 bar in recirculation mode (returning the discharge of the HPH to the stirred vessel inlet), having this step ended with a Dv50˜2 μm after 63 hours of operation;
2. After the homogenization step described in point 1. above, particle size of the active pharmaceutical ingredient was within target and the suspension was fed to a lab scale spray dryer in order to isolate the active pharmaceutical ingredient in the form of a powder;
3. […] Due to this unstable behavior (the final material properties were trending out of targets) the batch had to be interrupted to accommodate an investigation.
6. In order to move forward with the manufacturing of the mentioned batch and following ones, the dynamic suspension drying (DSD) was applied targeting the stabilization of the suspension during drying for that purpose the suspension was recycled at a moderated pressure of 455 bar.

crystalline form after DSD [1]: unchanged
Ostwald Ripening at 5° C. for target D50 range ([2]; D50 ~2 μm, 5° C., water as anti-solvent): still significant
Ostwald Ripening rate constant K at 5° C. compared to 45° C. ([2]; suspensions size-reduced to D50 = 2.0 μm and 3.0 μm, stored at 5° C. and 45° C., up to 168 h): more than five times lower
Dv50 at end of HPH step ([3]; suspension in water, HPH at 757.5 to 1363.5 bar in recirculation mode, after 63 hours of operation): ~2 μm
Dv50 of isolated product manufactured through DSD ([3]; suspension recycled to HPH at 455 bar during drying, on average, FIG. 4): ~2 μm
SMILES: C[C@@H]1C[C@H]2[C@@H]3CCC4=CC(=O)C=C[C@]4(C)[C@@]3(Cl)[C@@H](O)C[C@]2(C)[C@@]1(OC(=O)c1ccco1)C(=O)CCl [Mometasone furoate monohydrate]
particle size trend during isolating step (spray drying) without recirculation ([3]; suspension kept under stirring in feed vessel, no DSD, FIG. 2): increasing values of particle size were observed over time
